# How the values were obtained:
# HeLa = assay: Inhibition of cells growth by colorimetric assay (SRB); settings: Homo sapiens, HeLa, 48 h; for GI50: read-out: HELA GI50; for CC50: read-out: HELA LC50; for IC (TGI): read-out: HELA TGI
# In short: (§1)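 Colorimetric SRB read (490 nm) on triplicate wells after 48 h at 37 °C, 5% CO2. Dose range 10 to 10^−8 μg/ml; 5×10^3 cells/well pre-attached 18 h.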
# SK-MEL-28 = assay: as above; settings: Homo sapiens, SK-MEL-28, 48 h; for GI50: read-out: MEL-28 GI50; for CC50: read-out: MEL-28 LC50; for IC (TGI): read-out: MEL-28 TGI
# In short: as §1
# IGROV-1 = assay: as above; settings: Homo sapiens, IGROV-1, 48 h; for GI50: read-out: IGROV GI50; for CC50: read-out: IGROV LC50; for IC (TGI): read-out: IGROV TGI
# In short: as §1
# IGROV-ET = assay: as above; settings: Homo sapiens, 48 h; for GI50: read-out: IGROV-ET GI50; for CC50: read-out: IGROV-ET LC50; for IC (TGI): read-out: IGROV-ET TGI
# In short: as §1
# HeLa-APL = assay: as above; settings: Homo sapiens, 48 h; for GI50: read-out: HELA-APL GI50; for CC50: read-out: HELA-APL LC50; for IC (TGI): read-out: HELA-APL TGI
# In short: as §1
# SK-BR-3 = assay: as above; settings: Homo sapiens, SK-BR-3, 48 h; for GI50: read-out: SK-BR3 GI50; for CC50: read-out: SK-BR3 LC50; for IC (TGI): read-out: SK-BR3 TGI
# In short: as §1
# LNCaP = assay: as above; settings: Homo sapiens, LNCaP, 48 h; for GI50: read-out: LNCAP GI50; for CC50: read-out: LNCAP LC50; for IC (TGI): read-out: LNCAP TGI
# In short: as §1
# PANC-1 = assay: as above; settings: Homo sapiens, PANC-1, 48 h; for GI50: read-out: PANC-1 GI50; for CC50: read-out: PANC-1 LC50; for IC (TGI): read-out: PANC-1 TGI
# In short: as §1
# DU-145 = assay: as above; settings: Homo sapiens, DU-145, 48 h; for GI50: read-out: DU145 GI50; for CC50: read-out: DU145 LC50; for IC (TGI): read-out: DU145 TGI
# In short: as §1
# K-562 = assay: as above; settings: Homo sapiens, K562, 48 h; for GI50: read-out: K562 GI50; for CC50: read-out: K562 LC50; for IC (TGI): read-out: K562 TGI
# In short: as §1
# LoVo-Dox = assay: as above; settings: Homo sapiens, 48 h; for GI50: read-out: LOVO-DOX GI50; for CC50: read-out: LOVO-DOX LC50; for IC (TGI): read-out: LOVO-DOX TGI
# In short: as §1
# A-549 = assay: cells; settings: Homo sapiens, A549, 48 h; for GI50: read-out: A549 GI50; for CC50: read-out: A549 LC50; for IC (TGI): read-out: A549 TGI
# In short: as §1
# LoVo = assay: cells; settings: Homo sapiens, LoVo, 48 h; for GI50: read-out: LOVO GI50; for CC50: read-out: LOVO LC50; for IC (TGI): read-out: LOVO TGI
# In short: as §1
# HT-29 = assay: cells; settings: Homo sapiens, HT-29, 48 h; for GI50: read-out: HT29 GI50; for CC50: read-out: HT29 LC50; for IC (TGI): read-out: HT29 TGI
# In short: as §1
smiles,measurement,setting,value
COc1c(C)cc2c(c1O)[C@H]1N[C@@H](C2)[C@H](O)N2C1[C@@H]1SC[C@]3(NCCc4c3[nH]c3ccc(O)cc43)C(=O)OC[C@H]2c2c3c(c(C)c(OC(C)=O)c21)OCO3 (stereo partly drawn) [compound 65],GI50,HeLa,2.34 nM
same,CC50,HeLa,9.99 nM
same,IC (TGI),HeLa,4.82 nM
same,GI50,SK-MEL-28,3.78 nM
same,CC50,SK-MEL-28,42 nM
same,IC (TGI),SK-MEL-28,10.8 nM
same,GI50,IGROV-1,4.07 nM
same,CC50,IGROV-1,2990 nM
same,IC (TGI),IGROV-1,11.4 nM
same,GI50,IGROV-ET,76 nM
same,CC50,IGROV-ET,3300 nM
same,IC (TGI),IGROV-ET,406 nM
same,GI50,HeLa-APL,2 nM
same,CC50,HeLa-APL,8.46 nM
same,IC (TGI),HeLa-APL,4.1 nM
same,GI50,SK-BR-3,2.97 nM
same,CC50,SK-BR-3,209 nM
same,IC (TGI),SK-BR-3,7.66 nM
same,GI50,LNCaP,0.875 nM
same,CC50,LNCaP,6.16 nM
same,IC (TGI),LNCaP,2.54 nM
same,GI50,PANC-1,3.99 nM
same,CC50,PANC-1,4250 nM
same,IC (TGI),PANC-1,12.3 nM
same,GI50,DU-145,2.63 nM
same,CC50,DU-145,4770 nM
same,IC (TGI),DU-145,6.45 nM
same,GI50,K-562,1.22 nM
same,CC50,K-562,7800 nM
same,IC (TGI),K-562,13.9 nM
same,GI50,LoVo-Dox,399 nM
same,CC50,LoVo-Dox,13200 nM
same,IC (TGI),LoVo-Dox,1050 nM
same,GI50,A-549,22.9 nM
same,CC50,A-549,313 nM
same,IC (TGI),A-549,56 nM
same,GI50,LoVo,6.78 nM
same,CC50,LoVo,2960 nM
same,IC (TGI),LoVo,36.9 nM
same,GI50,HT-29,4.51 nM
same,CC50,HT-29,13200 nM
same,IC (TGI),HT-29,196 nM
COc1c(C)cc2c(c1O)[C@H]1N[C@@H](C2)[C@H](O)N2C1[C@@H]1SC[C@]3(NCCc4c3[nH]c3ccc(C)cc43)C(=O)OC[C@H]2c2c3c(c(C)c(OC(C)=O)c21)OCO3 (stereo partly drawn) [compound 66],GI50,HeLa,2.41 nM
same,CC50,HeLa,9.07 nM
same,IC (TGI),HeLa,4.68 nM
same,GI50,SK-MEL-28,5.34 nM
same,CC50,SK-MEL-28,74.5 nM
same,IC (TGI),SK-MEL-28,18.9 nM
same,GI50,IGROV-1,2.99 nM
same,CC50,IGROV-1,160 nM
same,IC (TGI),IGROV-1,6.76 nM
same,GI50,IGROV-ET,38.3 nM
same,CC50,IGROV-ET,5590 nM
same,IC (TGI),IGROV-ET,179 nM
same,GI50,HeLa-APL,3.05 nM
same,CC50,HeLa-APL,12.7 nM
same,IC (TGI),HeLa-APL,6.24 nM
same,GI50,SK-BR-3,6.5 nM
same,CC50,SK-BR-3,13200 nM
same,IC (TGI),SK-BR-3,331 nM
same,GI50,LNCaP,1.99 nM
same,CC50,LNCaP,7.39 nM
same,IC (TGI),LNCaP,3.83 nM
same,GI50,PANC-1,4.57 nM
same,CC50,PANC-1,6400 nM
same,IC (TGI),PANC-1,23.4 nM
same,GI50,DU-145,3.39 nM
same,CC50,DU-145,3860 nM
same,IC (TGI),DU-145,1.6 nM
same,GI50,K-562,4.33 nM
same,CC50,K-562,484 nM
same,IC (TGI),K-562,12.5 nM
same,GI50,LoVo-Dox,370 nM
same,CC50,LoVo-Dox,13200 nM
same,IC (TGI),LoVo-Dox,1890 nM
same,GI50,A-549,7.62 nM
same,CC50,A-549,874 nM
same,IC (TGI),A-549,39.7 nM
same,GI50,LoVo,5.27 nM
same,CC50,LoVo,4350 nM
same,IC (TGI),LoVo,20.9 nM
same,GI50,HT-29,5.86 nM
same,CC50,HT-29,13200 nM
same,IC (TGI),HT-29,181 nM
C=CCN1[C@@H]2c3c(cc(C)c(OC)c3O)C[C@H]1[C@H](O)N1C2[C@@H]2SC[C@]3(NCCc4cc(O)c(OC)cc43)C(=O)OC[C@H]1c1c3c(c(C)c(OC(C)=O)c12)OCO3 (stereo partly drawn) [compound 67],GI50,HeLa,30.2 nM
same,CC50,HeLa,395 nM
same,IC (TGI),HeLa,67.4 nM
same,GI50,SK-MEL-28,20.4 nM
same,CC50,SK-MEL-28,100 nM
same,IC (TGI),SK-MEL-28,45.3 nM
same,GI50,IGROV-1,31.2 nM
same,CC50,IGROV-1,685 nM
same,IC (TGI),IGROV-1,78.6 nM
same,GI50,IGROV-ET,26.8 nM
same,CC50,IGROV-ET,2680 nM
same,IC (TGI),IGROV-ET,62.7 nM
same,GI50,HeLa-APL,29.7 nM
same,CC50,HeLa-APL,327 nM
same,IC (TGI),HeLa-APL,64.7 nM
same,GI50,SK-BR-3,8.71 nM
same,CC50,SK-BR-3,284 nM
same,IC (TGI),SK-BR-3,37.4 nM
same,GI50,LNCaP,3 nM
same,CC50,LNCaP,37.4 nM
same,IC (TGI),LNCaP,9 nM
same,GI50,PANC-1,27.4 nM
same,CC50,PANC-1,2780 nM
same,IC (TGI),PANC-1,92.7 nM
same,GI50,DU-145,35.9 nM
same,CC50,DU-145,3500 nM
same,IC (TGI),DU-145,75.4 nM
same,GI50,K-562,33.9 nM
same,CC50,K-562,2090 nM
same,IC (TGI),K-562,39.7 nM
same,GI50,LoVo-Dox,368 nM
same,CC50,LoVo-Dox,12700 nM
same,IC (TGI),LoVo-Dox,975 nM
same,GI50,A-549,32.7 nM
same,CC50,A-549,797 nM
same,IC (TGI),A-549,68.7 nM
same,GI50,LoVo,28.6 nM
same,CC50,LoVo,10600 nM
same,IC (TGI),LoVo,73 nM
same,GI50,HT-29,37.9 nM
same,CC50,HT-29,11900 nM
same,IC (TGI),HT-29,102 nM

# Reference: US7767659B2, “Synthesis of naturally occurring ecteinascidins and related compounds” (Pharma Mar, S.A., priority 2002, dated 2010)
